Key:
BoNT/A LC [1] = target: T1, BoNT/A LC (Clostridium botulinum, UniProt P0DPI0); assay: biochemical; type: biochemical
BoNT/A holotoxin = BoNT/A holotoxin (Clostridium botulinum, UniProt P0DPI0); conditions: 3.3 μM; cited from earlier work
anthrax lethal factor = anthrax lethal factor (Bacillus anthracis, UniProt P15917); type: biochemical
[2] = target: BoNT serotype B light chain (BoNT/B LC) (Clostridium botulinum, UniProt P10844); type: biochemical
BoNT/A LC [3] = target: T1, BoNT/A LC; conditions: cited from earlier work

T1 sequence (P0DPI0 2-448 limits assumed): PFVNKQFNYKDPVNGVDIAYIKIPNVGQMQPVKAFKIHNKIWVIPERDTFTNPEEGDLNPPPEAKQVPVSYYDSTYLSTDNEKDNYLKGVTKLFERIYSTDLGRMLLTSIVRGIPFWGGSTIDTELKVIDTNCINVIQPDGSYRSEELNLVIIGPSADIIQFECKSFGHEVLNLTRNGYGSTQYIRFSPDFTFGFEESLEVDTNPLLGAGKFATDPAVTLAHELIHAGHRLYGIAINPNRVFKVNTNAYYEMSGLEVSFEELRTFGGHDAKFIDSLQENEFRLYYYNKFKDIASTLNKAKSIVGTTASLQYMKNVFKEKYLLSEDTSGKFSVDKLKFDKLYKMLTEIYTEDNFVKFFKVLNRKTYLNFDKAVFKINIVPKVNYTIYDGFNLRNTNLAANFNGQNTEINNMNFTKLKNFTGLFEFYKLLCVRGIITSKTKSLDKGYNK
anthrax lethal factor, sequence (P15917 34-809 limits assumed): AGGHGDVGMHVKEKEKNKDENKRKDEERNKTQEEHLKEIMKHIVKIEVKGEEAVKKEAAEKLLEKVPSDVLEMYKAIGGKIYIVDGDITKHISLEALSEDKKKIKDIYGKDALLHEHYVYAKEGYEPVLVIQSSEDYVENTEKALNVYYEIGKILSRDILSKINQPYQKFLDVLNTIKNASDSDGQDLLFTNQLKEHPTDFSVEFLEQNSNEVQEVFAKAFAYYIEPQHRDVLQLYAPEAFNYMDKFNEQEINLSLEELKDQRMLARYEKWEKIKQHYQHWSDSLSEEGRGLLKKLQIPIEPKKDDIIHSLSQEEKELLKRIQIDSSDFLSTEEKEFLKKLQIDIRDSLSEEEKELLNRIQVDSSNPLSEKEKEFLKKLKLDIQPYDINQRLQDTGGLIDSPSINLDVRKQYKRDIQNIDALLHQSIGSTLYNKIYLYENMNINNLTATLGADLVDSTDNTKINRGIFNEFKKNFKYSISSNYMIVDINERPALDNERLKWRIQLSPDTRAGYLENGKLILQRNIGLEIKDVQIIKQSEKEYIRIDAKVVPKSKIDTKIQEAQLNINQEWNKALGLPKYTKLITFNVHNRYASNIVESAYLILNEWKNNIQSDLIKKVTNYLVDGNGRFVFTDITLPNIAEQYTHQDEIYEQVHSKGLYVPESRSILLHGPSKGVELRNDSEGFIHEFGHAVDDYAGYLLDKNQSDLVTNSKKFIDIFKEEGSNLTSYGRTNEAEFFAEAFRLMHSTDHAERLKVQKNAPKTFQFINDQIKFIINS
BoNT serotype B light chain (BoNT/B LC), sequence (P10844 2-441 limits assumed): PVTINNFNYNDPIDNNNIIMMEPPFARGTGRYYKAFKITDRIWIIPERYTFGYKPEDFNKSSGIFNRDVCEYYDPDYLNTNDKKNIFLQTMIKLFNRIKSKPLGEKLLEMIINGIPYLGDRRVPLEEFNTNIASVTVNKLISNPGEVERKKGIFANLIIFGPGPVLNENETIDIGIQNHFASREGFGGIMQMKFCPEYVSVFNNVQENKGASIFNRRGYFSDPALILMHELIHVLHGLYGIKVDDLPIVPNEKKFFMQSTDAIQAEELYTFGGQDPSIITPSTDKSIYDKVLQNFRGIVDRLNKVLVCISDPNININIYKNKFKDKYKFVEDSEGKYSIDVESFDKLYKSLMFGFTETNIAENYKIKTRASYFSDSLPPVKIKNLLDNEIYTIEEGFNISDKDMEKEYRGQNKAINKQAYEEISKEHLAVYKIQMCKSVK
BoNT/A holotoxin, sequence (P0DPI0 2-448 limits assumed): as the sequence (P0DPI0 2-448 limits assumed) above
BoNT/A holotoxin, sequence (P0DPI0 449-1296 limits assumed): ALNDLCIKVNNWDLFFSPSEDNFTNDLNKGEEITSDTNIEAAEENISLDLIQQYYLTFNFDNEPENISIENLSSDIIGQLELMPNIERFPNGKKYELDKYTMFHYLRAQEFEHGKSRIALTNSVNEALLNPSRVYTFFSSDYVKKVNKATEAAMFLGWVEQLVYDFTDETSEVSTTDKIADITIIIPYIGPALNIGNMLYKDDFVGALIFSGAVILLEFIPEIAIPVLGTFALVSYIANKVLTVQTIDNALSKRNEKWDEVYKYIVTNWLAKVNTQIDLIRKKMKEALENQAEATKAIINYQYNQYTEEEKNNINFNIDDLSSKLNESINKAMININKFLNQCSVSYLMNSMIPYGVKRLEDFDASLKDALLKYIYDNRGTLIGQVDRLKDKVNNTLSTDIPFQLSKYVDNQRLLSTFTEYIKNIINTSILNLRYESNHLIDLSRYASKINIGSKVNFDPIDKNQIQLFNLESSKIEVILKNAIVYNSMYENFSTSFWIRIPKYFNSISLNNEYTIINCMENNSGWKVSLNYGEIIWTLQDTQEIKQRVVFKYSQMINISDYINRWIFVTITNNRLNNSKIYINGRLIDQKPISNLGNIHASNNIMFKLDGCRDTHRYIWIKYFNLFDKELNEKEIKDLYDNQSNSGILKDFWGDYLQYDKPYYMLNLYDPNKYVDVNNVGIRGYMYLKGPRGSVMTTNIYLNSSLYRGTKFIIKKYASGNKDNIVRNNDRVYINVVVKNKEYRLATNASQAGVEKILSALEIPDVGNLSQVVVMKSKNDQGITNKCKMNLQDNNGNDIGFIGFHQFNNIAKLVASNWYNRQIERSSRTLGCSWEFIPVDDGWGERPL

CCN(CC)CCCC(C)Nc1ccnc2cc(Cl)ccc12 (racemic) [Chloroquine (racemic), Chloroquine]
inhibition at 20 µM (BoNT/A LC [1]): 20%

CCN(CC)CCCC(C)Nc1c2ccc(Cl)cc2nc2ccc(OC)cc12 (racemic) [Quinacrine (racemic), Quinacrine]
inhibition at 20 µM (BoNT/A LC [1]): 30% | delay of the time to about 50% muscle paralysis (over control) (BoNT/A holotoxin): at least 30%

CCN(CC)Cc1cc(Nc2ccnc3cc(Cl)ccc23)ccc1O [Amodiaquine]
% Inhibition (BoNT/A LC [1]): 20% | inhibition at 20 µM (BoNT/A LC [1]): 30%

CCOc1ccc2c(ccc(/C=C/c3ccc4c(C)ccnc4c3O)[n+]2C)c1 [NSC 86372]
inhibition of anthrax lethal factor (in words) (anthrax lethal factor): inhibit | effect of addition of zinc on inhibition (BoNT/A LC [1]): immediately and quantitatively reversed inhibition | inhibition at 20 µM (BoNT/A LC [1]): 51% | inhibition of BoNT/B LC protease activity (in words) [2]: inhibit

O=C(O)c1c(I)c(I)c(I)c(I)c1C1c2ccc(O)cc2Oc2cc(O)ccc21 [NSC 119889]
inhibition at 20 µM (BoNT/A LC [1]): 56%

O=[N+]([O-])c1cc(Cc2cc([N+](=O)[O-])c3cccnc3c2O)c(O)c2ccccc12 [NSC 130796]
inhibition of anthrax lethal factor (in words) (anthrax lethal factor): inhibit | inhibition at 20 µM (BoNT/A LC [1]): 48% | inhibition of BoNT/B LC protease activity (in words) [2]: inhibit

Nc1c(/C=C/c2cc3cc(C4=NCCN4)ccc3o2)[nH]c2cc(C3=NCCN3)ccc12 [NSC 357756]
inhibition at 20 µM (BoNT/A LC [1]): 57%

Ic1ccc2nc3cc(Nc4ccc5c(c4)nc4ccc(I)cc4[n+]5-c4ccccc4)ccc3[n+](-c3ccccc3)c2c1 [NSC 402959]
inhibition at 20 µM (BoNT/A LC [1]): 40%

COc1cc(C)cc2c(-c3c(O)cc(O)c4c3C[C@@H](C)N[C@@H]4C)cc(-c3cc(-c4c(O)cc(O)c5c4C[C@@H](C)N[C@@H]5C)c4cc(C)cc(OC)c4c3O)c(O)c12 [NSC 661755, Michellamine B]
effect of added zinc on inhibition of BoNT/A LC (BoNT/A LC [1]): not affected by added zinc | inhibition at 20 µM (BoNT/A LC [1]): 62%

C[C@H](CS)C(=O)N1CCC[C@H]1C(=O)O [captopril]
BoNT/A LC inhibition (in words) (BoNT/A LC [3]): inhibited by mM concentrations

CCOC(=O)[C@H](CCc1ccccc1)N[C@@H](C)C(=O)N1CCC[C@H]1C(=O)O [enalapril]
BoNT/A LC inhibition (in words) (BoNT/A LC [3]): inhibited by mM concentrations

NCCCC[C@H](N[C@@H](CCc1ccccc1)C(=O)O)C(=O)N1CCC[C@H]1C(=O)O [lysinopril]
BoNT/A LC inhibition (in words) (BoNT/A LC [3]): inhibited by mM concentrations

[Ag+] [silver ion]
effect of addition of DTT on inhibition (BoNT/A LC [1]): immediately reversed inhibition | effect of zinc in assays on inhibition (BoNT/A LC [1]): no effect | inhibition of protease activity (BoNT/A LC [1]): about 100%

Quinidine
% Inhibition (BoNT/A LC [1]): 9 3%

Quinine
% Inhibition (BoNT/A LC [1]): 9 3%

From patent US7574340B2 (priority 2003, dated 2009)
